Experimental data as given in patent US10933043B2, “Methods of treating neurodevelopmental diseases and disorders” (Deakin University, priority 2014, dated 2021).
Entries after “also recorded” stand apart in the source; their conditions may differ.

Assays:
[1] = test system: differentiated mouse motor neuronal NSC-34 cells; experiment: Protection of NSC-34 cells from toxic BPA exposure, MTT assay; assay type: cell-based; settings: 1 mM compound, 500 ng/ml of BPA, MTT assay 72 hours later
Protocol: To compare the respective activities of trans and cis 10-HDA 1 mM respectively of cis or trans 10-HDA in the presence of 500 ng/ml of BPA (toxic level) was added to differentiated mouse motor neuronal NSC-34 cells. Cell survival was determined by MTT assay 72 hours later.

[2] = test system: aromatase; experiment: Aromatase immunohistochemistry in human neuroblastoma SH-SY5Y cells exposed to BPA with or without 10-HDA; assay type: cell-based; settings: for effect on BPA-induced changes of aromatase expression pattern and neurites: 25 μg/L BPA + 1 mM 10 HDA
Protocol: FIG. 1: Effects of BPA and 10-HDA on aromatase expression in human neuroblastoma SH-SY5Y cells. Under normal conditions, SH-SY5Y cells express aromatase which is a membrane bound protein in endoplasmic reticulum, and appears as green punctate staining eventually distributed within the cell by immunohistochemistry. In the presence of 25 μg/L bisphenol A the aromatase became aggregates. The effects of bisphenol A can be ameliorated by addition of 10HDA. (a) +0 μg/L BPA (Vehicle)—Clear staining of aromatase (green) evenly distributed in the cytoplasm and along the neurites, as tiny “dots”. A lot of healthy cells evenly distributed over the surface area of the coverslip. B-tubulin (red) is highly expressed throughout the cytoplasm and neurites. […] A decrease in 13-tubulin expression was also observed in most cells that have lost their neurites. […] (c) +25 μg/L BPA+1 mM 10 HDA—Good neurite growth and even aromatase distribution throughout the cytoplasm was observed.
Human neuroblastoma SHY-SY-5Y cells were cultured were cultured in Dulbecco's Modified Eagle Medium supplemented with 10% heat-inactivated Fetal Bovine Serum, 1% penicillin and 1% L-Glutamine at 37° C. in a humidified atmosphere of 95% air and 5% CO2. The localization of aromatase in these cells can be detected using immunohistochemistry with antibody specific to aromatase. Under normal conditions, aromatase appears as punctuate staining throughout the cells, as it is a membrane bound protein in the endoplasmic reticulum.

[3] = test system: mice; experiment: In utero BPA exposure of mice: offspring social interaction and stereology neuron counts; assay type: in vivo, mouse
Protocol: BPA (50 μg/kg) was thus administered to pregnant mice mid-gestation (i.e. embryonic days 10.5 to 14.5). […] A further study was conducted to examine the effects of BPA exposure on numbers of aromatase-GFP positive neurons in utero (FIG. 3). The medial amygdala is involved in social interaction and highly expressed aromatase.
(§1) With regard to the social interaction study, the test mouse was placed in a social test box, a three-chambered clear plastic box with doorways in the dividing walls to allow access into each chamber. Each side-chamber contained a wire cage. The test mouse was evaluated over three sessions. In session 1, the test mouse was placed in the middle chamber and allowed to explore all 3 chambers for 10 min. In session 2, an unfamiliar same sex and age mouse (stranger 1) was enclosed in the wire cage either side of the central chamber, and the test mouse was allowed to explore the entire social test box for a period of 10 min. In session 3, a new unfamiliar mouse was placed in the previously empty wire cage such that the test mouse has a choice between the first, now familiar, already-investigated mouse (stranger 1) and the novel unfamiliar mouse (stranger 2). Mouse movements were recorded and tracked using the TopScan video tracking system. Durations in each chamber, time spent sniffing each wire cage, and the number of transitions between chambers were analysed.

[4] = test system: BPA exposed mice; experiment: 10-HDA treatment of BPA exposed mice: social interaction and spontaneous grooming; assay type: in vivo, mouse
Protocol: As described in Example 2, mice with autistic-like behaviour were generated by mating female wild type FVBN mice with male CYP19-GFP mice and followed by subcutaneous injection of 50 […] of BPA on gestational days 10.5 to 14.5.
After weaning, control and BPA exposed pups were administered 10-HDA daily (0 and 500 μg/kg/day; dissolved in saline) by intraperitoneal injection for a maximum period of 6 weeks. Six litters were initially studied after 3 weeks of daily treatment for anxiety, memory, social interaction (FIG. 4A) and spontaneous grooming.
Data collection was conducted by investigators who were blind to the respective genotypes or treatment of any given animal. Two criteria were assessed as the basis for the behavioural studies, social interaction, and spontaneous grooming activity.
as §1
Spontaneous Grooming activity was used as a measure of repetitive activity. The spontaneous grooming of the mice were recorded by the TopScan video tracking system during the session 1 or the 3 chamber studies described above. The duration and frequency of grooming were the parameters of measurements and analysed blind.
The male animals were then re-administered with either vehicle or 10-HDA as described above for 3 weeks, and subjected to behavioural studies again (FIG. 4C).

[5] = test system: aromatase cells in the amygdala; experiment: Patch clamping of aromatase cells in the amygdala in brain slices of treated mice; assay type: in vivo, mouse
Description: After behaviour studies, the animals were sacrificed and electrophysiological data were gathered from the brain slices by patch clamping of aromatase cells in the amygdala.

[6] = test system: primary cortical culture; experiment: Primary cortical cell cultures of male mouse embryonic foetuses: dendritic length and spine densities; assay type: cell-based
Protocol: Primary cortical culture was prepared from male mouse foetuses at embryonic day 15.5. Specifically, the effects of BPA and 10-HDA on dendritic length and spine densities were assessed. Four test groups were assessed, mice treated with BPA, mice treated with 10-HDA, mice treated with BPA and 10-HDA, and a vehicle control. Ten neurons were measured and the experiments were duplicated.

[7] = test system: neurons in the somatosensory cortex; experiment: Dendritic length of neurons in the somatosensory cortex of treated mice; assay type: in vivo, mouse; settings: BPA exposed mice with 10-HDA treatment
[8] = BPA, male mouse embryonic day 15.5 cortical neurons

Structure (SMILES): O=C(O)/C=C\CCCCCCCO [cis 10-HDA]
- cell survival (protection against BPA toxicity) [1]: does not protect against BP toxicity

Structure (SMILES): CC(C)(c1ccc(O)cc1)c1ccc(O)cc1 [BPA, bisphenol A]
- neurites ([2]; 25 μg/L BPA, SH-SY5Y cells): Some populations of cells are starting to lose their neurites
- β-tubulin expression ([2]; 25 μg/L BPA, SH-SY5Y cells that have lost their neurites): decrease
- aromatase localization/staining pattern ([2]; 25 μg/L BPA, SH-SY5Y cells, immunohistochemistry): aromatase forms aggregate and will lose its function; also recorded: could denature aromatase in vitro; also recorded: Aromatase aggregates start to form
- ASD-like behaviours ([3]; BPA 50 μg/kg to pregnant mice embryonic days 10.5 to 14.5, WT male offspring): exhibit ASD-like behaviours
- time spent with the stranger mice (social interaction) ([3]; BPA 50 μg/kg to pregnant mice embryonic days 10.5 to 14.5, male offspring vs vehicle exposed male or BPA exposed female offspring): significantly less time
- numbers of aromatase-GFP positive neurons ([3]; BPA exposure in utero, standard Stereology method): significantly reduced
- fewer neurons in the medial amygdala ([3]; male offspring exposed to BPA): 13.5%
- grooming ([4]; 50 μg/kg/day of BPA exposed male offspring): excessive grooming
- resistance of the neurons ([5]; BPA exposure, patch clamping of brain slices): reduced the resistance of the neurons
- dendritic length of neurons [6, 8]: decreased
- spine density [6, 8]: decreased

Structure (SMILES): O=C(O)/C=C/CCCCCCCO [10-HDA, 10-hydroxy-2-decenoic acid]
- effect on BPA-induced changes of aromatase expression pattern and neurites ([2]; SH-SY5Y cells): can protect against the denaturing effect of bisphenol A on aromatase
- effect on BPA-induced changes of aromatase expression pattern and neurites ([2]; SH-SY5Y cells, listed as 10HDA): ameliorates the effects of BPA on the expression pattern of aromatase and neurites
- social interaction deficit and autistic-like behaviour ([4]; BPA exposed animals, 10-HDA 500 μg/kg/day intraperitoneal daily, 3 weeks): could ameliorate the social interaction deficit and autistic-like behaviour
- excessive grooming ([4]; BPA exposed male offspring, 10-HDA treatment 3 weeks): ameliorated
- social interaction after treatment withdrawal ([4]; BPA-exposed male animals, treatments withdrawn for 3 months): withdrawal led to presentation of social interaction deficit
- resistance of the neurons ([5]; BPA exposed mice with 10-HDA treatment): restored resistance to normal
- dendritic length of the neurons [7]: restored the dendritic length of the neurons in the somatosensory cortex to normal length
- effect against BPA on spine density and dendritic length ([6]; BPA and 10-HDA): reverse or protect against the effect of BPA
- neurites and spines formation ([6]; primary cortical culture): has the capacity to stimulate neurites and spines formation
- cell survival (protection against BPA toxicity) [1]: exhibits neuroprotective effects
